IC50 data for 13 compounds are collected here from US20230312556A1, “ARYLAMIDE COMPOUND, PHARMACEUTICAL COMPOSITION COMPRISING SAME, AND PREPARATION METHOD THEREFOR AND USE THEREOF” (SICHUAN KELUN-BIOTECH BIOPHARMACEUTICAL CO., LTD., priority 2020, published 2023).

The target of this experiment is mutant BRAF enzyme (BRAF-V600E) (Homo sapiens (Human), UniProt P15056, V600E). Description: RAF inhibition assay (TB-PMAP2K1 kit), BRAF-V600E. The format is biochemical. As to conditions: FLUORESCEIN-MAP2K1 substrate, 60 min reaction.
Sequence of mutant BRAF enzyme (BRAF-V600E) (P15056 whole entry V600E): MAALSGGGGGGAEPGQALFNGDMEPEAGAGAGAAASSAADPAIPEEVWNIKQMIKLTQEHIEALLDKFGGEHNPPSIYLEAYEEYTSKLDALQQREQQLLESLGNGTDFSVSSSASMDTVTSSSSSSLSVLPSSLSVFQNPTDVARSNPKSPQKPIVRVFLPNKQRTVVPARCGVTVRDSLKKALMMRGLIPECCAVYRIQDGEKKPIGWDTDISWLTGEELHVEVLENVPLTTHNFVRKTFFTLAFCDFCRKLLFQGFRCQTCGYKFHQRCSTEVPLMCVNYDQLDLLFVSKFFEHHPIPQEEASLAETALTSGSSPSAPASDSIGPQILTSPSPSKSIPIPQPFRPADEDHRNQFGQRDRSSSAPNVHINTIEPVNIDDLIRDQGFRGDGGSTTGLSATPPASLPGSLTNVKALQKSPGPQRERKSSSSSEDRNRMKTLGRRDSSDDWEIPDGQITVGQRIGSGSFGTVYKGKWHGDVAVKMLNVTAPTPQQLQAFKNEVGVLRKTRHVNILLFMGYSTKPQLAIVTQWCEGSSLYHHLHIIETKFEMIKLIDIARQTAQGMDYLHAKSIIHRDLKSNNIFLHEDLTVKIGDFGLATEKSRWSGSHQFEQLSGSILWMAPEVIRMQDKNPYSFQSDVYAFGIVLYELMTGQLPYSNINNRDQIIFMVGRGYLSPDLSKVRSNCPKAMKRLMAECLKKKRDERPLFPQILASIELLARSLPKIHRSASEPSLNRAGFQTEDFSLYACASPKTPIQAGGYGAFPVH
In the case of `Cc1ccc2c(Nc3cccc(Cl)c3F)nccc2c1NC(=O)c1cccc2c(N)nccc12` [Comparative Example 1, 1-amino-N-(1-((3-chloro-2-fluorophenyl)amino)-6-methylisoquinolin-5-yl)isoquinoline-5-carboxamide, reference compound], the IC50 was more than 1000 nM.

On to `Cc1ccc2c(Nc3cccc(C(F)(F)F)c3)nccc2c1NC(=O)c1cccc2c(N)nccc12` [Comparative Example 2, 1-amino-N-(6-methyl-1-((3-(trifluoromethyl)phenyl)amino)isoquinolin-5-yl)isoquinoline-5-carboxamide, reference compound], for which the IC50 is more than 1000 nM.

Regarding `Cc1ccc2c(Cc3ccccc3F)nccc2c1NC(=O)c1csc2c(N)ncnc12` [Compound 2, 4-amino-N-(1-(2-fluorobenzyl)-6-methylisoquinolin-5-yl)thieno[3,2-d]pyrimidine-7-carboxamide], inhibition was half-maximal at 35.6 ± 2.4 nM (IC50).

Consider `COc1ccc(Cc2nccc3c(NC(=O)c4csc5c(N)ncnc45)c(C)ccc23)cc1` [Compound 5, 4-amino-N-(1-(4-methoxybenzyl)-6-methylisoquinolin-5-yl)thieno[3,2-d]pyrimidine-7-carboxamide], for which the IC50 came out at 8.9 ± 1.03 nM.

`COc1ccc(C(O)c2nccc3c(NC(=O)c4csc5c(N)ncnc45)c(C)ccc23)cc1` (stereo not shown) [Compound 6, 4-amino-N-(1-(hydroxy(4-methoxyphenyl)methyl)-6-methylisoquinolin-5-yl)thieno[3,2-d]pyrimidine-7-carboxamide] returned an IC50 of 25.2 ± 4.08 nM.

Compound `Cc1ccc2c(Cc3cccc(Cl)c3F)nccc2c1NC(=O)c1csc2c(N)ncnc12` [Compound 8, 4-amino-N-(1-(3-chloro-2-fluorobenzyl)-6-methylisoquinolin-5-yl)thieno[3,2-d]pyrimidine-7-carboxamide] showed an IC50 of 8.63 ± 0.99 nM.

As for `Cc1ccc2c(Cc3ccccc3Cl)nccc2c1NC(=O)c1csc2c(N)ncnc12` [Compound 10, 4-amino-N-(1-(2-chlorobenzyl)-6-methylisoquinolin-5-yl)thieno[3,2-d]pyrimidine-7-carboxamide], the IC50 was found to be 4.73 ± 1.82 nM.

For the compound `Cc1ccc2c(C(=O)c3ccccc3Cl)nccc2c1NC(=O)c1csc2c(N)ncnc12` [Compound 11, 4-amino-N-(1-(2-chlorobenzoyl)-6-methylisoquinolin-5-yl)thieno[3,2-d]pyrimidine-7-carboxamide], 33.1 ± 7.2 nM corresponded to half-maximal inhibition (IC50).

Compound `Cc1ccc2c(Nc3cccc(Cl)c3)nccc2c1NC(=O)c1cnc2c(N)ncnn12` [Compound 12, 4-amino-N-(1-((3-chlorophenyl)amino)-6-methylisoquinolin-5-yl)imidazo[2,1-f][1,2,4]triazine-7-carboxamide] showed an IC50 of 1.5 ± 0.2 nM.

With `Cc1ccc2c(Cc3ccc(F)cc3)nccc2c1NC(=O)c1csc2c(N)ncnc12` [Compound 13, 4-amino-N-(1-(4-fluorobenzyl)-6-methylisoquinolin-5-yl)thieno[3,2-d]pyrimidine-7-carboxamide], the IC50 turned out to be 32.8 ± 0.6 nM.

`Cc1ccc2c(C(O)c3ccccc3Cl)nccc2c1NC(=O)c1csc2c(N)ncnc12` (stereo not shown) [Compound 14, 4-amino-N-(1-((2-chlorophenyl)(hydroxy)methyl)-6-methylisoquinolin-5-yl)thieno[3,2-d]pyrimidine-7-carboxamide]: the IC50 came to 6.3 ± 0.7 nM.

`Cc1ccc2c(C(O)c3ccc(F)cc3)nccc2c1NC(=O)c1csc2c(N)ncnc12` (stereo not shown) [Compound 15, 4-amino-N-(1-((4-fluorophenyl)(hydroxy)methyl)-6-methylisoquinolin-5-yl)thieno[3,2-d]pyrimidine-7-carboxamide]: the IC50 worked out at 11.1 ± 1.5 nM.

As to `Cc1ccc2c(Cc3cccc(Cl)c3)nccc2c1NC(=O)c1csc2c(N)ncnc12` [Compound 16, 4-amino-N-(1-(3-chlorobenzyl)-6-methylisoquinolin-5-yl)thieno[3,2-d]pyrimidine-7-carboxamide], 6.27 ± 1.15 nM corresponded to half-maximal inhibition (IC50).

In general, IC50 refers to the point on the concentration scale where inhibition reaches its midpoint. Low readings indicate greater potency in that assay, high ones weaker potency in that assay.
